In data set [1] the test system is PC-9. Description: Antiproliferative activity against human PC-9 cells harboring EGFR L858R mutant by MTT assay. It is filed as functional, cell-based. For orientation: Tetrazolium dyes change colour on reduction, which living cells bring about.
The subject of data set [2] is NCI-H1975. Put plainly: Antiproliferative activity against human NCI-H1975 cells harboring EGFR T790M/L858R mutant by MTT assay. Format: functional, cell-based.
Another data set relates to NCI-H292. Description: Antiproliferative activity against human NCI-H292 cells harboring wild-type EGFR by MTT assay. Format: functional, cell-based.
The nature of data set [3]: Selectivity ratio of IC50 for antiproliferative activity against human NCI-H292 cells harboring wild-type EGFR to IC50 for antiproliferative activity against human NCI-H1975 cells harboring EGFR T790M/L858R mutant. It is filed as functional.
A short description of data set [4]: Antiproliferative activity against human DiFi cells. It is filed as functional, cell-based.
Data set [5] in a line: Half life in Sprague-Dawley rat at 10 mg/kg, po administered as single dose. It is filed as ADME, organism-based. The conditions noted are these: in vivo.
Data set [6] in a line: Tmax in Sprague-Dawley rat at 10 mg/kg, po administered as single dose. It is filed as ADME, organism-based. The conditions noted are these: in vivo.
Data set [7] is described as follows: Cmax in Sprague-Dawley rat at 10 mg/kg, po administered as single dose. The arrangement: route oral, dose 10 mg/kg. The conditions noted are these: in vivo. It is filed as ADME, organism-based.
Data set [8] is described as follows: AUC (0 to t) in Sprague-Dawley rat at 10 mg/kg, po administered as single dose. As to conditions: in vivo. Further details: dose 10 mg/kg. Format: ADME, organism-based.
Data set [9] can be described thus: AUC (0 to infinity) in Sprague-Dawley rat at 10 mg/kg, po administered as single dose. It is filed as ADME, organism-based. Further details: time infinity, route oral, dose 10 mg/kg. The conditions noted are these: in vivo.
The nature of data set [10]: MRT in Sprague-Dawley rat at 10 mg/kg, po administered as single dose. Format: ADME, organism-based. The conditions noted are these: in vivo.
Data set [11] can be described thus: Oral bioavailability in Sprague-Dawley rat at 10 mg/kg administered as single dose. It is filed as ADME, organism-based. The conditions noted are these: in vivo.
A short description of data set [12]: Half life in Sprague-Dawley rat at 2 mg/kg, iv administered as single dose. Format: ADME, organism-based. The conditions noted are these: in vivo.
Data set [13] in a line: Cmax in Sprague-Dawley rat at 2 mg/kg, iv administered as single dose. It is filed as ADME, organism-based. The arrangement: route intravenous, dose 2 mg/kg. The conditions noted are these: in vivo.
A short description of data set [14]: AUC (0 to t) in Sprague-Dawley rat at 2 mg/kg, iv administered as single dose. The conditions noted are these: in vivo. Format: ADME, organism-based. Further details: dose 2 mg/kg.
Data set [15] can be described thus: AUC (0 to infinity) in Sprague-Dawley rat at 2 mg/kg, iv administered as single dose. Format: ADME, organism-based. The arrangement: route intravenous, time infinity, dose 2 mg/kg. As to conditions: in vivo.
The nature of data set [16]: Clearance in Sprague-Dawley rat at 2 mg/kg, iv administered as single dose. Format: ADME, organism-based. As to conditions: in vivo.
Data set [17] in a line: MRT in Sprague-Dawley rat at 2 mg/kg, iv administered as single dose. It is filed as ADME, organism-based. The conditions noted are these: in vivo.
For a further data set, the system named is HK-2. Put plainly: Cytotoxicity against HK-2 cells assessed as reduction in cell viability by MTT assay. It is filed as cell-based. The conditions noted are these: Homo sapiens.
Data set [18] in a line: Cytotoxicity against HLF cells assessed as reduction in cell viability by MTT assay. Format: cell-based. As to conditions: Homo sapiens.
Data set [19] is described as follows: Cytotoxicity against HEK293-A cells assessed as reduction in cell viability by MTT assay. It is filed as cell-based. As to conditions: Homo sapiens.
Data set [20] concerns NCI-H1975. Put plainly: Antitumor activity against human NCI-H1975 cells harboring EGFR T790M/L858R mutant xenografted in nude mouse assessed as tumor volume at 15 mg/kg, po administered once daily for 7 days (reference value: 843 mm3). Format: functional. As to conditions: time 7 day.
For data set [21], the system named is NCI-H1975. Put plainly: Antitumor activity against human NCI-H1975 cells harboring EGFR T790M/L858R mutant xenografted in nude mouse assessed as tumor growth inhibition at 15 mg/kg, po administered once daily for 7 days relative to control. It is filed as functional. As to conditions: time 7 day.
In data set [22] the test system is PC-9. Description: Antiproliferative activity against human PC-9 cells. It is filed as functional, cell-based.
The nature of data set [23]: Antiproliferative activity against human RPC9 cells. Format: functional, cell-based.
Data set [24] has as its system NCI-H1975. Put plainly: Antiproliferative activity against human NCI-H1975 cells. Format: functional, cell-based.
Another data set concerns BT-474. Description: Antiproliferative activity against human BT-474 cells. It is filed as functional, cell-based.
For the next data set, the system named is SK-BR-3. Put plainly: Antiproliferative activity against human SK-BR-3 cells. Format: functional, cell-based.

The term IC50 denotes the concentration at which inhibition is half-maximal. By half-life is commonly meant the time needed for the level to fall by half in the phase considered. A lower half-life goes with fast loss. By Tmax is commonly meant the time from dosing to the highest level. A word on the Cmax: it is the peak of the concentration-time curve. As usually defined, the AUC(0-t) is the area under the concentration-time curve up to a stated or last time point. A low value points to low exposure. Usually AUC(0-inf) stands for total exposure, with the tail of the curve extrapolated. What is called MRT is the average time that molecules of a dose stay in the body. Usually bioavailability stands for dose-corrected exposure relative to a reference, in per cent. The term clearance denotes the volume of plasma or blood freed of the substance per unit of time. For orientation: TGI means how far tumour growth fell short of that in controls.

With `C=CC(=O)Nc1cc(Nc2nccc(-c3cn(C4CC4)c4ccccc34)n2)c(OC)cc1OCCC[S+](C)[O-]` (stereo not drawn), the IC50 with PC-9 [1] turned out to be 203 nM; in the data set with NCI-H1975 [2], 445 nM; with NCI-H292 it was 3760 nM. The “Ratio IC50” value in data set [3] is 8.5.
In the case of `C=CC(=O)Nc1cc(Nc2nccc(-c3cn(C4CC4)c4ccccc34)n2)c(OC)cc1OCCCSC`, the concentration for half-maximal inhibition (IC50) in the data set with PC-9 [1] is 2320 nM; in the data set with NCI-H1975 [2], 1120 nM; in the data set with NCI-H292 it was > 10000 nM. Besides, the “Ratio IC50” value in data set [3] is on record as >8.9.
For `C=CC(=O)Nc1cc(Nc2nccc(-c3cn(C4CC4)c4ccccc34)n2)c(OC)cc1N(C)CCO` the same measures were 64 nM, 74 nM, 1690 nM and 22.9.
The compound `C#Cc1cccc(Nc2ncnc3cc(OCCOC)c(OCCOC)cc23)c1` [ERLOTINIB] registered an IC50 in data set [4] of 20 nM.
Take `C=CC(=O)Nc1cc(Nc2nccc(-c3cn(C4CC4)c4ccccc34)n2)c(OC)cc1N(C)CCSC`: the concentration for half-maximal inhibition (IC50) stood at 1320 nM in the data set with PC-9 [1], 1300 nM in the data set on NCI-H1975 [2] and 2630 nM in the data set with NCI-H292. In data set [3], the “Ratio IC50” value was 2.
With `C=CC(=O)Nc1cc(Nc2nccc(-c3cn(C)c4ccccc34)n2)c(OC)cc1[S+]([O-])CCN(C)C` (stereo not drawn), the half-life in [5] is 85.8 min; in data set [12] it was 37.2 min. The Tmax in data set [6] is 1 h. Moreover, the results for the Cmax in [7] and in [13] were 275 ng/mL and 789 ng/mL, respectively. Also, the AUC(0-t) was 635 ng·h/mL in data set [8] and 402 ng·h/mL in data set [14]. The AUC(0-inf) in data set [9] was 652 ng·h/mL; in [15], 406 ng·h/mL. Besides, the MRT was 2.07 h in [10] and 53.4 min in data set [17]. The compound also yielded a bioavailability in [11] of 31.6%. In data set [16], the clearance is 82.2 mL/min/kg.
Consider `C=CC(=O)Nc1cc(Nc2ncc(Cl)c(-c3cn(C4CC4)c4ccccc34)n2)c(OC)cc1[S+]([O-])CCN(C)C` (stereo not drawn), for which the figures for the IC50 in the data set with PC-9 [1], in the data set on NCI-H1975 [2] and with NCI-H292 were 5 nM, 9 nM and 156 nM, respectively. For the same compound, the “Ratio IC50” value in data set [3] was 17.3.
For the compound `C=CC(=O)Nc1cc(Nc2nccc(-c3cn(C)c4ccccc34)n2)c(OC)cc1N(C)CCN(C)C` [OSIMERTINIB], the IC50 with PC-9 [1] was determined as […]; in the data set with NCI-H1975 [2], […]; in the data set on NCI-H292, 924 nM; with HK-2, 2720 nM; in data set [18], 3.35 µM; in data set [19] it was 2250 nM. Also, in the data set with NCI-H1975 [20], the Activity turned out to be 21 mm3. Moreover, the TGI with NCI-H1975 [21] was determined as 97.64%.
For `C=CC(=O)Nc1cc(Nc2ncc(Cl)c(-c3cn(C4CC4)c4ccccc34)n2)c(OC)cc1SCCN(C)C`, the figures for the half-inhibitory concentration (IC50) in the data set with PC-9 [1], in the data set on NCI-H1975 [2] and with NCI-H292 were 9 nM, 8 nM and 157 nM, respectively. In addition, in data set [3], the “Ratio IC50” value was 19.6.
For `C=CC(=O)Nc1cc(Nc2nccc(-c3cn(C4CC4)c4ccccc34)n2)c(OC)cc1OCC[S+](C)[O-]` (stereo not drawn) the same measures were 435 nM, 544 nM, 4810 nM and 8.8.
As for `CN(C)C/C=C/C(=O)Nc1cc2c(Nc3ccc(F)c(Cl)c3)ncnc2cc1O[C@H]1CCOC1` [AFATINIB], the 50% inhibitory concentration (IC50) in the data set with PC-9 [22] is 0.3 nM; in data set [23], 164 nM.
Regarding `C=CC(=O)Nc1cc(Nc2nccc(-c3cn(C4CC4)c4ccccc34)n2)c(OC)cc1N1CCSCC1`, the IC50 is 734 nM in the data set with PC-9 [1], 333 nM with NCI-H1975 [2] and > 10000 nM in the data set with NCI-H292. Moreover, the “Ratio IC50” value in data set [3] is >30.
Take `C=CC(=O)Nc1cccc(Oc2nc(Nc3ccc(N4CCN(C)CC4)cc3OC)ncc2Cl)c1`: the IC50 with PC-9 [22] turned out to be 36 nM; in the data set with NCI-H1975 [24], 47 nM.
Regarding `C=CC(=O)Nc1cc(Nc2nccc(-c3cn(C4CC4)c4ccccc34)n2)c(OC)cc1N(C)CC[S+](C)[O-]` (stereo not drawn), the IC50 in the data set with PC-9 [1] was determined as 261 nM; in the data set with NCI-H1975 [2], 411 nM; with NCI-H292, 1140 nM. The “Ratio IC50” value in data set [3] worked out at 2.8.
For `C=CC(=O)Nc1cc(Nc2nccc(-c3cn(C4CC4)c4ccccc34)n2)c(OC)cc1SCCN(C)C` the same measures were 44 nM, 21 nM, 674 nM and 32.1.
As to `COc1cc2ncnc(Nc3ccc(F)c(Cl)c3)c2cc1NC(=O)/C=C/CN1CCCCC1` [DACOMITINIB ANHYDROUS], the half-maximal inhibitory concentration (IC50) in the data set on BT-474 amounted to 18 nM; with SK-BR-3, 15 nM.
In the case of `C=CC(=O)Nc1cccc(Nc2nc(Nc3ccc(N4CCN(C(C)=O)CC4)cc3OC)ncc2C(F)(F)F)c1` [ROCILETINIB], the IC50 was 84 nM with PC-9 [22] and 23 nM in the data set with NCI-H1975 [24].
For the compound `C=CC(=O)Nc1cc(Nc2nccc(-c3cn(C4CC4)c4ccccc34)n2)c(OC)cc1OCCSC`, the results for the half-maximal inhibitory concentration (IC50) with PC-9 [1], with NCI-H1975 [2] and in the data set with NCI-H292 were 648 nM, 543 nM and 9770 nM, respectively. Also, the “Ratio IC50” value in data set [3] worked out at 18.
For `C=CC(=O)Nc1cc(Nc2nccc(-c3cn(C4CC4)c4ccccc34)n2)c(OC)cc1OCCN(C)C` the same measures were 5 nM, 8 nM, 432 nM and 54.

The values are drawn from ChEMBL document CHEMBL4706659, “Design, synthesis and biological evaluation of novel 2,4-diaryl pyrimidine derivatives as selective EGFR inhibitors” (Eur J Med Chem, 2021).
